Values belong to the molecule of their own block, whether it stands above or below them. Active and inactive are the calls of the source. The rule behind the calls is not given here.
How the values were obtained:
L02 [1] = experiment: Hepatoprotective activity in Homo sapiens (human) LO2 cells assessed as reversal of CCl4-induced decrease in superoxide dismutase activity at 1 mM treated prior to CCl4 addition measured after 24 hr by xanthine/xanthine oxidase assay (CCl4 Rvb = 47 +/-4.4%); type: functional; design: scale not given: the % may be the effect or the level left
L02 [2] = experiment: Hepatoprotective activity in Homo sapiens (human) LO2 cells assessed as reversal of CCl4-induced decrease in GSH-Px activity at […] treated prior to CCl4 addition measured after 24 hr (CCl4 Rvb = 49 +/-3.8%); type: functional; design: scale not given: the % may be the effect or the level left
L02 [3] = experiment: Hepatoprotective activity in Homo sapiens (human) LO2 cells assessed as reversal of CCl4-induced decrease in superoxide dismutase activity at 50 mM treated prior to CCl4 addition measured after 24 hr by xanthine/xanthine oxidase assay (CCl4 Rvb = 47 +/-4.4%); type: functional; design: scale not given: the % may be the effect or the level left
[4] = Antioxidant activity assessed as decrease in initial DPPH concentration after 30 min by MicroELISA reader analysis; type: functional
L02 [5] = experiment: Hepatoprotective activity in Homo sapiens (human) LO2 cells assessed as protection against CCl4-induced cytotoxicity at […] treated prior to CCl4 addition measured after 24 hr by MTT assay; type: functional, cell-based
L02 [6] = experiment: Hepatoprotective activity in Homo sapiens (human) LO2 cells assessed as reversal of CCl4-induced increase in malondialdehyde level at 10 mM treated prior to CCl4 addition measured after 24 hr (CCl4 Rvb = 170 +/-4.3%); type: functional
L02 [7] = experiment: Hepatoprotective activity in Homo sapiens (human) LO2 cells assessed as reversal of CCl4-induced increase in malondialdehyde level at 1 mM treated prior to CCl4 addition measured after 24 hr (CCl4 Rvb = 170 +/-4.3%); type: functional
L02 [8] = experiment: Hepatoprotective activity in Homo sapiens (human) LO2 cells assessed as reversal of CCl4-induced decrease in GSH-Px activity at 50 mM treated prior to CCl4 addition measured after 24 hr (CCl4 Rvb = 49 +/-3.8%); type: functional; design: scale not given: the % may be the effect or the level left
L02 [9] = experiment: Hepatoprotective activity in Homo sapiens (human) LO2 cells assessed as protection against CCl4-induced cytotoxicity at 50 to […] treated prior to CCl4 addition measured after 24 hr by MTT assay; type: functional, cell-based
L02 [10] = experiment: Hepatoprotective activity in Homo sapiens (human) LO2 cells assessed as reversal of CCl4-induced decrease in superoxide dismutase activity at 10 mM treated prior to CCl4 addition measured after 24 hr by xanthine/xanthine oxidase assay (CCl4 Rvb = 47 +/-4.4%); type: functional; design: scale not given: the % may be the effect or the level left
L02 [11] = experiment: Hepatoprotective activity in Homo sapiens (human) LO2 cells assessed as reversal of CCl4-induced increase in malondialdehyde level at 50 mM treated prior to CCl4 addition measured after 24 hr (CCl4 Rvb = 170 +/-4.3%); type: functional
L02 [12] = experiment: Hepatoprotective activity in Homo sapiens (human) LO2 cells assessed as reversal of CCl4-induced decrease in superoxide dismutase activity at […] treated prior to CCl4 addition measured after 24 hr by xanthine/xanthine oxidase assay (CCl4 Rvb = 47 +/-4.4%); type: functional; design: scale not given: the % may be the effect or the level left
L02 [13] = experiment: Hepatoprotective activity in Homo sapiens (human) LO2 cells assessed as reversal of CCl4-induced decrease in GSH-Px activity at 1 mM treated prior to CCl4 addition measured after 24 hr (CCl4 Rvb = 49 +/-3.8%); type: functional; design: scale not given: the % may be the effect or the level left
L02 [14] = experiment: Hepatoprotective activity in Homo sapiens (human) LO2 cells assessed as reversal of CCl4-induced decrease in GSH-Px activity at 10 mM treated prior to CCl4 addition measured after 24 hr (CCl4 Rvb = 49 +/-3.8%); type: functional; design: scale not given: the % may be the effect or the level left
L02 [15] = experiment: Hepatoprotective activity in Homo sapiens (human) LO2 cells assessed as reversal of CCl4-induced increase in malondialdehyde level at […] treated prior to CCl4 addition measured after 24 hr (CCl4 Rvb = 170 +/-4.3%); type: functional
L02 [16] = experiment: Hepatoprotective activity in Homo sapiens (human) LO2 cells assessed as protection against CCl4-induced cytotoxicity at 10 to […] treated prior to CCl4 addition measured after 24 hr by MTT assay; type: functional, cell-based

IC50 [4]: 38.1 µM
Structure (SMILES): OC[C@H]1O[C@@H](OCCc2cc(O)c(O)c(O)c2)[C@H](O)[C@@H](O)[C@@H]1O
Activity (L02 [1]): 50% | Activity (L02 [2]): 80% | Activity (L02 [3]): 70% | Activity (L02 [5]): Active | Activity (L02 [6]): 151% | Activity (L02 [7]): 167% | Activity (L02 [8]): 71% | Activity (L02 [9]): Active | Activity (L02 [10]): 55% | Activity (L02 [11]): 128% | Activity (L02 [12]): 83% | Activity (L02 [13]): 54% | Activity (L02 [14]): 57% | Activity (L02 [15]): 117% | Activity (L02 [16]): Active

IC50 [4]: 61.6 µM
Structure (SMILES): COc1cc(CCO[C@@H]2O[C@H](CO)[C@@H](O)[C@H](O)[C@H]2O)cc(OC)c1O

IC50 [4]: 54.6 µM
Structure (SMILES): O=C1O[C@H]([C@@H](O)CO)C(O)=C1O [ASCORBIC ACID]

IC50 [4]: 59.8 µM
Structure (SMILES): COc1cc(CCO[C@@H]2O[C@H](CO)[C@@H](O)[C@H](O)[C@H]2O)ccc1O

IC50 [4]: 35.9 µM
Structure (SMILES): OC[C@H]1O[C@@H](OCCc2cc(O)c(O)c(O)c2)[C@H](O)[C@@H](O)[C@H]1O
Activity (L02 [1]): 54% | Activity (L02 [2]): 86% | Activity (L02 [3]): 76% | Activity (L02 [5]): Active | Activity (L02 [6]): 141% | Activity (L02 [7]): 164% | Activity (L02 [8]): 78% | Activity (L02 [9]): Active | Activity (L02 [10]): 65% | Activity (L02 [11]): 119% | Activity (L02 [12]): 89% | Activity (L02 [13]): 55% | Activity (L02 [14]): 64% | Activity (L02 [15]): 110% | Activity (L02 [16]): Active

IC50 [4]: 87.5 µM
Structure (SMILES): CCOc1cc(CCO[C@@H]2O[C@H](CO)[C@H](O)[C@H](O)[C@H]2O)ccc1O

IC50 [4]: > 100 µM
Structure (SMILES): OC[C@H]1O[C@@H](OCCc2ccc(O)c(Br)c2)[C@H](O)[C@@H](O)[C@@H]1O

Structure (SMILES): OC[C@H]1O[C@@H](OCCc2ccc(O)cc2)[C@H](O)[C@@H](O)[C@@H]1O [SALIDROSIDE]
Activity (L02 [1]): 49% | Activity (L02 [2]): 61% | Activity (L02 [3]): 56% | Activity (L02 [5]): Active | Activity (L02 [6]): 165% | Activity (L02 [7]): 168% | Activity (L02 [8]): 56% | Activity (L02 [9]): Active | Activity (L02 [10]): 52% | Activity (L02 [11]): 162% | Activity (L02 [12]): 61% | Activity (L02 [13]): 51% | Activity (L02 [14]): 53% | Activity (L02 [15]): 157% | Activity (L02 [16]): Active

IC50 [4]: 70.1 µM
Structure (SMILES): COc1cc(CCO[C@@H]2O[C@H](CO)[C@H](O)[C@H](O)[C@H]2O)cc(OC)c1O

IC50 [4]: > 100 µM
Structure (SMILES): OC[C@H]1O[C@@H](OCCc2cc(Br)c(O)c(Br)c2)[C@H](O)[C@@H](O)[C@@H]1O

IC50 [4]: 40.8 µM
Structure (SMILES): COc1cc(CCO[C@@H]2O[C@H](CO)[C@H](O)[C@H](O)[C@H]2O)ccc1O

IC50 [4]: > 100 µM
Structure (SMILES): OC[C@H]1O[C@@H](OCCc2cc(Br)c(O)c(Br)c2)[C@H](O)[C@@H](O)[C@H]1O

IC50 [4]: > 100 µM
Structure (SMILES): OC[C@H]1O[C@@H](OCCc2ccc(O)c(Br)c2)[C@H](O)[C@@H](O)[C@H]1O

IC50 [4]: 66.8 µM
Structure (SMILES): CCOc1cc(CCO[C@@H]2O[C@H](CO)[C@@H](O)[C@H](O)[C@H]2O)ccc1O

Source: ChEMBL document CHEMBL3044980, “Free radical scavenging and hepatoprotective effects of salidroside analogs on CCl4-induced cytotoxicity in LO2 cells” (Med Chem Res, 2013)
